The values that follow come from patent US10201516B2 (The Regents of the University of California, priority 2014, dated 2019).

In one data set the test system is NIH/3T3 cells. Put plainly: Sphere formation assay in NIH/3T3 cells. Type of data set: cell-based, mouse. Particulars: for sphere forming efficiency: K-Ras^V12 transformed NIH/3T3 cells (FIG. 10F); for sphere formation: vector control or H-Ras^V12 transformed NIH/3T3 (FIG. 10F). On the procedure: (§1) Tankyrase inhibitors, JW55, Cardinogenl, and JW67, were purchased from R&D Systems. The cells were treated with the inhibitors at 0.5 μM for 12 hours for TOPFlash assays. For sphere formation assays, the cells were cultured in complete medium with different Tankyrase inhibitors.
Cells were harvested, counted and seeded into Ultra Low Attachment Culture 96-well plate (Corning Life Science, Catalog number 3261) at 10 or 100 cells per well. The seeded cells and formed spheres were maintained in low serum containing medium with 0.1% FBS or CS. The initiated spheres were observed twice and week. The numbers of formed spheres were counted one month after seeding. The spheres were harvested and re-seeded into 12-well or 24-well plate with complete growth medium at one sphere per well. The re-plated colonies were stained and visualized by 0.05% crystal violet staining (in […]).

Data set [1] relates to β-catenin/TCF/LEF transcriptional activity. Put plainly: TOPFlash assay in NIH/3T3 cells. Particulars: for β-catenin/TCF/LEF transcriptional activity (TOPFlash): Ras^V12-transformed NIH/3T3 cells, 0.5 μM for 12 hours (FIG. 10E). Type of data set: cell-based, mouse. How it is done: as §1
Cells were transfected with TOPFlash (Addgene#12456), FOPFlash (Addgene#12457) or pGL3-NFAT (Addgene#17870) luciferase reporter constructs by using Fugene6 (Roche). 48th hour post-transfection the luciferase activities in cell lysates were measured using Bright-Glo Luciferase Assay System (Promega) according to the manufacturer's instructions.

For a further data set, the system named is CaMKii. Put plainly: Western blot of phospho-CaMKii in Ras-transformed NIH/3T3 cells (and human pancreatic cancer cell lines). Type of data set: cell-based, mouse. Particulars: NIH/3T3-H-Ras^V12 and vector control cells (FIG. 3B). How it is done:
(§2) Experimental cells were washed twice in ice-cold PBS and lysed in 1% Triton lysis buffer [25 mmol/L Tris pH 7.5, 150 mmol/L NaCl, 1% Triton X-100, 1 mmol/L EDTA, 1 mmol/L EGTA, 20 mmol/L NaF, 1 mmol/L […], and 1 mmol/L DTT] supplemented with a protease inhibitor cocktail (Roche) and cleared by centrifugation. Protein concentrations were determined by the Bio-Rad Protein Assay (Bio-Rad). Equal amounts of protein extracts were resolved using SDS-PAGE (NuPAGE; Invitrogen), transferred to a nitrocellulose membrane, and immunoblotted with primary antibodies indicated, followed by secondary antibodies labeled with either IRDye800 (Rockland) or Alexa Fluor 680 (Molecular Probes) and were visualized using a LI-COR Odyssey scanner. A complete list of primary antibodies is provided in the Extended Experimental Procedures.

The subject of the next data set is Fzd8. The experiment in a line: Western blot of Fzd8 expression in NIH/3T3 cells. Type of data set: cell-based, mouse. Particulars: NIH/3T3-H-Ras^V12 cells (FIG. 3B). On the procedure: as §2
For data set [2] the following is noted: PKC activators, literature; cited from earlier work.

On to `c1coc(-c2nnc3sc(C4CCCCC4)nn23)c1` [cardionogen1], for which, in the data set with NIH/3T3 cells, the sphere forming efficiency result is listed as “still maintained their sphere forming efficiency” and the sphere formation entry is “inhibited sphere formation”. Moreover, in data set [1], the “β-catenin/TCF/LEF transcriptional activity (TOPFlash)” value is on record as “successfully repressed β-catenin/TCF/LEF transcriptional activity”.
In the same order, the values of `O=C1Nc2ccccc2C12OCC1(CO2)COC2(OC1)C(=O)Nc1ccccc12` (centres unmarked) [JW67] are “still maintained their sphere forming efficiency”, “inhibited sphere formation” and “successfully repressed β-catenin/TCF/LEF transcriptional activity”.
Take `COc1ccc(S(=O)(=O)N(CCO)c2ccccc2CN(C)C/C=C/c2ccc(Cl)cc2)cc1` [KN-93]: the “sphere forming efficiency and size of spheroid colonies” value in the data set on NIH/3T3 cells (NIH/3T3-H-Ras^V12 cells (FIG. 3D)) was “dramatically enhanced the sphere forming efficiency and the size of spheroid colonies”. Also, the “phosphorylation of CaMKii” value with CaMKii is on record as “reduced phosphorylation of CaMKii”. The β-catenin transcriptional activity result in data set [1] (NIH/3T3-H-Ras^V12 cells (FIG. 3C)) is reported as “increased β-catenin transcriptional activity”. Also, the Fzd8 expression entry in the data set with Fzd8 is on record as “reduced Fzd8 expression”.
With `CCCCCCCCCCCCCC(=O)O[C@@H]1[C@@H](C)[C@@]2(O)[C@@H](C=C(CO)C[C@]3(O)C(=O)C(C)=C[C@@H]23)[C@@H]2C(C)(C)[C@]12OC(C)=O` [PMA, phorbol-12-myristate-13-acetate, reference compound], the tumor promotion entry in data set [2] is given as “tumor promoting”.
Take `COc1ccc(C2(CNC(=O)c3ccc(NC(=O)c4ccco4)cc3)CCOCC2)cc1` [JW55]: in the data set on NIH/3T3 cells, the sphere forming efficiency entry is “still maintained their sphere forming efficiency” and the sphere formation result is reported as “inhibited sphere formation”. Also, the “β-catenin/TCF/LEF transcriptional activity (TOPFlash)” value in data set [1] is recorded as “successfully repressed β-catenin/TCF/LEF transcriptional activity”.
